Measurements: patent publication US20200069675A1, “PHARMACEUTICAL PREPARATIONS OF SEBACOYL DINALBUPHINE AND ACETAMINOPHEN AND METHODS FOR TREATING PAIN” (International Education Foundation, priority 2018, published 2020)

Legend:
SD rats = assay: Paw pressure test (Randall and Selitto), analgesic effect after oral administration; type: in vivo, Sprague-Dawley rats; conditions: alone or combined, mean ± SE; for AUG / AUC: analgesic effect AUC; for AUC: 0-300 min; for Maximum Peak (% of MPA): cut-off 750 g; for Duration of action (min) (20% of MPA): time over 20% MPA; for Onset of action (min) (20% of MPA): time up to 20% MPA
Experimental: Male Sprague-Dawley rats weights between 260 and 330 g were purchased from BioLASCO (Taipei, Taiwan). The rats were housed in a controlled condition (free access to food and water); 12-h light-dark cycle, temperature 22° C. and humidity 60%. All experiments were conducted in accordance with the IACUC's Protocol for the Care and Use of Animals and to treat the animals in an ethical and humane manner consistent with the law.
Analgesic effects studies were used to the paw pressure test by Randall and Selitto. Nociceptive threshold is expressed in grams and measured with an analgesimeter (IITC Inc. Life Science, CA), were applied to the left hind paw of rats. All animals were tested at 15, 30, and 45 min prior to medication, to obtain an average baseline. Results were expressed as a percentage of the maximum possible effect (% MPE), according to the formula % MPA=(Test-Baseline)/(Cutoff-Baseline)×100, cut-off value: 750 g. AUC (area under curve) is independent of each individual, at each time point detection value minus own baseline and integral, then calculated the average. Negative values (% MPA and AUC) are considered as zero. The maximum peak of % MPA and Tmax are independent of each individual, then calculated the average. With 20% MPA as a baseline of valid analgesic effect, analysis of onset time of action up to 20% MPA and duration time of action over 20% MPA. Pharmacodynamic studies were conducted to compare in rats the analgesic effects of oral administration of SDE 75 mg/kg alone. AAP product (100 mg/kg) alone and combinations of SDE 75 mg/kg plus AAP product (100 mg/kg) or NAL 60 mg/kg alone. AAP product (100 mg/kg) alone and combinations of NAL 60 mg/kg plus AAP product (100 mg/kg). The anti-nociceptive thresholds were measured at 30, 60, 90, 120, 150, 180, 210, 240, 270, and 300 min after drug administration.

postoperative pain = conditions: oral vs intramuscular; cited from earlier work
[1] = system: hospitalized patients with postoperative pain; conditions: single oral doses, 128 hospitalized patients, evaluated each hour for 6 hours; Clin Pharmacol Ther 1986; 39:295-9; cited from earlier work
[2] = conventional form, Br J Clin Pharmacol 1988, 25:264-8; cited from earlier work
[3] = Test 2, NAL 60 mg/kg, AAP product 100 mg/kg, MPA greater than 50%
[4] = Test 2, NAL 60 mg/kg, AAP product 100 mg/kg
[5] = Test 1, AAP product 100 mg/kg, SDE 75 mg/kg
[6] = Test 1, AAP product 100 mg/kg, SDE 75 mg/kg, time of maximum % MPA

Row | SMILES | Duration of action (SD rats; [3]) | Onset of action (SD rats; [3]) | AUG (SD rats; [4]) | % MPA (Maximum Peak) (SD rats; [4]) | Tmax (SD rats; [4]) | potency of oral relative to intramuscular nalbuphine as postoperative analgesic (postoperative pain) | analgesic effect (measures of total and peak analgesia) [1] | bioavailability through oral administration [2] | AUC (SD rats; [5]) | Maximum Peak (% of MPA) (SD rats; [5]) | Tmax (SD rats; [6]) | Duration of action (min) (20% of MPA) (SD rats; [5]) | Onset of action (min) (20% of MPA) (SD rats; [5])
1 | Oc1ccc2c3c1O[C@H]1[C@@H](O)CC[C@@]4(O)[C@@H](C2)N(CC2CCC2)CC[C@]314 [NAL, nalbuphine] | 16.61 ± 3.92 min | 24.36 ± 0.86 min | 298.9 ± 13.98 g·h | 57.87 ± 2.77 % MPA | 30 ± 0 min | one quarter to one fifth as potent as intramuscular nalbuphine | significantly superior to placebo | less than 5% | – | – | – | – | –
2 | O=C(CCCCCCCCC(=O)Oc1ccc2c3c1O[C@H]1[C@@H](O)CC[C@@]4(O)[C@@H](C2)N(CC2CCC2)CC[C@]314)Oc1ccc2c3c1O[C@H]1[C@@H](O)CC[C@@]4(O)[C@@H](C2)N(CC2CCC2)CC[C@]314 [SDE, sebacoyl dinalbuphine ester] | – | – | – | – | – | – | – | – | 359.4 ± 34.8 g·h | 46.6 ± 3.8 % of MPA | 37.5 ± 3.9 min | 99.8 ± 10.0 min | 14.7 ± 1.3 min
3 | CC(=O)Nc1ccc(O)cc1 [AAP, acetaminophen] | – | – | 274.83 ± 51.94 g·h | 38.26 ± 7.2 % MPA | 45 ± 8.66 min | – | significantly superior to placebo | – | 309.3 ± 68.5 g·h | 32.4 ± 2.7 % of MPA | 50.0 ± 10.0 min | 77.5 ± 13.5 min | 46.7 ± 17.5 min
